Measurements as given in patent publication US5420027A, “Methods and compositions for the expression of biologically active fusion proteins comprising a eukaryotic cytochrome P450 fused to a reductase in bacteria” (Board of Regents, The University of Texas System, priority 1992, dated 1995).
Read-outs that look alike come from different tables or passages of the source.

Tests used:
bovine P45017α = molecular target: T1, bovine P45017α (Bos taurus, UniProt P05185, W2A); assay: Substrate-induced difference spectra (substrate binding) in intact E. coli expressing P45017α; conditions: steroid added until spectrally saturated
T1 construct: made in house; host or cells: E. coli JM109 harboring pCWmod17 (intact cells)
T1 sequence (P05185 1-509 W2A): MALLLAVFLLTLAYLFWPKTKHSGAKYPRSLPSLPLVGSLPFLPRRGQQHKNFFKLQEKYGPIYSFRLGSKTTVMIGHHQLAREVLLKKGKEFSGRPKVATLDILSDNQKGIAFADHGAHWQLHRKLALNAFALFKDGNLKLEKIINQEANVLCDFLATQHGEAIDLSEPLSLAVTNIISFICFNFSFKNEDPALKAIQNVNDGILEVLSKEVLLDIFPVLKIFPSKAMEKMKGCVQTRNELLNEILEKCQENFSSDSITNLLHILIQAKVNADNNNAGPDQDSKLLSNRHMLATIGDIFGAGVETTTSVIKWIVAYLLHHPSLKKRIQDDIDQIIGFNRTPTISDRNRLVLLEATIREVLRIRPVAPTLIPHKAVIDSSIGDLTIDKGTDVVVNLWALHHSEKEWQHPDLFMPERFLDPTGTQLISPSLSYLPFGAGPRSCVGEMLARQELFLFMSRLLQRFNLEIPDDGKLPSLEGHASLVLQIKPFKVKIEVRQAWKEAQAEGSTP
Experimental: The functional role of the binding of C21 steroids to the expressed P45017α was determined by incubation of transformed E. coli with radiolabeled substrates and HPLC analysis of substrates and products.
For the studies shown in FIG. 3B, substrate binding spectra were obtained by adding steroid to the indicated final concentration: (preg) pregnenolone 22 μM, (17OH preg) 17α-hydroxypregnenolone 40 μM, (DHEA) dehydroepiandrosterone 46 μM, (AD) androstenedione 46 μM. A volume of washed cells containing 1.6 nmoles P45017α was diluted to 6 ml with MOPS buffer and divided into the sample and reference cuvettes of an Aminco DW-2A spectrophotometer. A baseline tracing was recorded from 350 to 510 nm (representative shown). Steroid was added in 10 μl aliquots (1-2mg/ml in ethanol) to the sample with an equal volume of ethanol added to the reference. Additional aliquots of steroids and ethanol were added until the bacterially expressed P45017α was spectrally saturated (spectra shown).

[1] = molecular target: T2, bovine P450 17A1- rat liver reductase fusion protein (UniProt P00388+P05185, W2A); assay: Steroid metabolism by bovine P450 17A1-rat liver reductase fusion protein with NADPH
T2 sequence (P05185+P00388 with tags, fused parts or gaps P05185:W2A): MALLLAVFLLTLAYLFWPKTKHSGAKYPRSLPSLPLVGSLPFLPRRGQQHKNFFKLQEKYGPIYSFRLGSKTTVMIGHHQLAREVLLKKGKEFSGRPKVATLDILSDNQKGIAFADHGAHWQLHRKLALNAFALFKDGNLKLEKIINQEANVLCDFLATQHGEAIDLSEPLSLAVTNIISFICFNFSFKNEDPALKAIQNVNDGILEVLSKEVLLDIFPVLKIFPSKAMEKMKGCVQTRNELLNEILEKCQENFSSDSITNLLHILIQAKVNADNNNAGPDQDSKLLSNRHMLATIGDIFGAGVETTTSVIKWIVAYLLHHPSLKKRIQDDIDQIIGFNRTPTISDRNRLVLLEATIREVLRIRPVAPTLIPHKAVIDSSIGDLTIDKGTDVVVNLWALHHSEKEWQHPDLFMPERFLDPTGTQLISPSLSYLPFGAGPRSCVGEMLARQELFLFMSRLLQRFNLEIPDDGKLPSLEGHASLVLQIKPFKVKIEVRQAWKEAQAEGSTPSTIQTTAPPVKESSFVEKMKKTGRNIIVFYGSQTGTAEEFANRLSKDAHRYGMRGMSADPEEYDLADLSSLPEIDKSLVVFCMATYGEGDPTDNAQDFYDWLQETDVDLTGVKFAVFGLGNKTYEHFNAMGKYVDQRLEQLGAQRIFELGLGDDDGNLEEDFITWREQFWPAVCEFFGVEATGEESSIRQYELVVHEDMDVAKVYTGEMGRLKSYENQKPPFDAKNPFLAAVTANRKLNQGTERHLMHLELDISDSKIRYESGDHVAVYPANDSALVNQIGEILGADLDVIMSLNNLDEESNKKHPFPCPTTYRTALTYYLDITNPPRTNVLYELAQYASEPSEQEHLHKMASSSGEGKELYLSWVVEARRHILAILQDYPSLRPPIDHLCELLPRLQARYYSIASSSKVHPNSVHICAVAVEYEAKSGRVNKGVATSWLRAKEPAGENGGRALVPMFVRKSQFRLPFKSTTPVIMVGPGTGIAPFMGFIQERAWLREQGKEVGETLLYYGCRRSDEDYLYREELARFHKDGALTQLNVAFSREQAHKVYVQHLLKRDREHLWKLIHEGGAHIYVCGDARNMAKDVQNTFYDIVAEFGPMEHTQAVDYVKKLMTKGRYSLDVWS
Experimental: FIG. 11. […] Analysis was performed with reverse phase HPLC chromatography on a C18 column.
In the present example, purification of the fusion protein was achieved by chromatography on DE-52 and 2', 5' ADP-sepharose.

human liver P450 1A2 = molecular target: T3, human liver P450 1A2 (Homo sapiens, UniProt P05177, A19F/I20L/S18V); assay: Ethoxyresorufin and ethoxycoumarin O-deethylase activities of P450 1A2-containing E. coli membranes (fluorometric); assay type: biochemical; conditions: O-deethylation; membranes plus purified reductase, 37° C.
T3 construct: made in house; host or cells: E. coli DH5α membranes, pCWori+ plasmid
T3 sequence (P05177 with tags, fused parts or gaps S18V/A19F/I20L limits assumed): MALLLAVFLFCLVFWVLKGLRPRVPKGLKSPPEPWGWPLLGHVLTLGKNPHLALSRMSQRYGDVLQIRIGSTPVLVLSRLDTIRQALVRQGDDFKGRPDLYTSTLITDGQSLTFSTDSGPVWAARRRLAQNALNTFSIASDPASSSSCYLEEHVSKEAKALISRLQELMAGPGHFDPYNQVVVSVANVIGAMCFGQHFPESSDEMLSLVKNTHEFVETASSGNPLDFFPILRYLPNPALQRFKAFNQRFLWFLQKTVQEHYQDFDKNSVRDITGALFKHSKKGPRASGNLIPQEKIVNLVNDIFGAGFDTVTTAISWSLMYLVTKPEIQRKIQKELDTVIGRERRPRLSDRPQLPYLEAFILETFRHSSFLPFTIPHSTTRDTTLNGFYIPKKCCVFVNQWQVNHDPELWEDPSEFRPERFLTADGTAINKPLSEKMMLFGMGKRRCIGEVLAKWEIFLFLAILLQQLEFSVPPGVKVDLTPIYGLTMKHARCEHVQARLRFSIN
Experimental: (§1) Membranes from P450 1A2-expressing E. coli were incubated with pure NADPH-cytochrome P450 reductase and the activity for the P450 directed oxidation of a number of substrates was determined.
(§2) Ethoxyresorufin and ethoxycoumarin O-deethylase activities were assayed fluorometrically using an Aminco-Bowman fluorometer as previously described (Burke & Mayer, 1974; Ullrich & Weber, 1972). […] Substrates were added as DMSO solutions in less than 0.1% of the final volume. The reactions were initiated by the addition of 10 μl of 50 mM NADPH.

[2] = molecular target: T4, bovine 17α-hydroxylase (P45017α) (Bos taurus, UniProt P05185, W2A); conditions: for conversion by expressed P45017α (17α-hydroxylation / 17,20-lyase): intact E. coli, 2.5 μM steroid, 28° C., up to 8 hours, no added reductase
T4 sequence (P05185 1-509 W2A): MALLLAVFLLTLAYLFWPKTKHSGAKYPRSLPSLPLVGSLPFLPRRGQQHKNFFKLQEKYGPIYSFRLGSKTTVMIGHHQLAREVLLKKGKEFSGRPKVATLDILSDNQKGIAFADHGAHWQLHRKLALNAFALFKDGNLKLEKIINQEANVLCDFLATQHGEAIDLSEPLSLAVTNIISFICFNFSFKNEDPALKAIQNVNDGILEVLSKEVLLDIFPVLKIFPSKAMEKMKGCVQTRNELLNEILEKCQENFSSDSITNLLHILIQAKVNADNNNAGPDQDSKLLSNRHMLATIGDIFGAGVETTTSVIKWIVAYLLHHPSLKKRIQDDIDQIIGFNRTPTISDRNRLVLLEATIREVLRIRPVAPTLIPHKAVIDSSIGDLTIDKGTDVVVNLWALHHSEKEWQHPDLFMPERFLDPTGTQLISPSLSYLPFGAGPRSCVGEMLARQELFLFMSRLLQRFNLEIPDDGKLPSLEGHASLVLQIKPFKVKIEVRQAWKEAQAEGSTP
Experimental: The initial substrates employed were pregnenolone, 17α-hydroxypregnenolone, and progesterone. For these studies, E. coli were grown and induced as described for the FIG. 2 studies. Cells were pelleted, washed once in MOPS buffer and resuspended in the same buffer at 1/20 volume of the original bacterial culture. A volume of concentrated cells corresponding to 3.7-4.2 nmoles P45017α was diluted to 5ml MOPS buffer containing 10 mM glucose, 2.5 μM steroid and 100,000 cpm/ml of ^3 H-labeled radioactive steroid. Samples were incubated at. 28° C. with gentle shaking. Aliquots (0.5 ml) were removed at 0, 0.5, 1, 2, 4, 6 and 8 hours after steroid addition. Following extraction of cells and culture media steroids were analyzed by HPLC as previously described (Estabrook et al., 1988).

[3] = substrate: C[C@]12CC[C@@H]3c4ccc(O)cc4CC[C@H]3[C@@H]1CC[C@@H]2O; assay: cells, lysate or membranes named; conditions: other: estradiol to 2-OH metabolite, membranes plus purified reductase, 37° C., pH 7.5
[4] = substrate: CCOc1ccc2nc3ccc(=O)cc-3oc2c1; assay: Ethoxyresorufin and ethoxycoumarin O-deethylase activities of P450 1A2-containing E. coli membranes (fluorometric); assay type: biochemical, human; conditions: other: O-deethylation, membranes plus purified reductase, 37° C., pH 7.4
Experimental: as §1, §2

[5] = membrane-bound fused enzyme (FIG. 10)
[6] = purified fusion protein incubated with NADPH (FIGS. 11, 12)

**Q.** With `CC(=O)[C@@]1(O)CC[C@H]2[C@@H]3CC=C4C[C@@H](O)CC[C@]4(C)[C@H]3CC[C@@]21C` [17α-hydroxyregnenolone, 17α-hydroxypregnenolone] as the molecule, how does the “binding to expressed P45017α (substrate-induced difference spectrum)” value (bovine P45017α) read?
**A.** The value was “binding of substrates was also observed”.

**Q.** And the “metabolism by membrane-bound fusion protein” value [1, 5]?
**A.** Its value is “lost the ability to catalyze the lyase reaction”.

**Q.** And the “metabolism by purified fusion protein” value [1, 6]?
**A.** Its value is “DHEA is formed in a time dependent manner”.

**Q.** How did the Vmax (human liver P450 1A2) turn out when `CCOc1ccc2ccc(=O)oc2c1` [Ethoxycoumarin] was run?
**A.** The Vmax was 0.3644 mol/min/mol P450.

**Q.** `C[C@]12CCC(=O)C=C1CC[C@@H]1[C@@H]2CC[C@]2(C)C(=O)CC[C@@H]12` [androstenedione] was tested. Which “binding to expressed P45017α (substrate-induced difference spectrum)” value (bovine P45017α) did it give?
**A.** Its value is “no binding”.

**Q.** For `C[C@]12CC[C@H](O)CC1=CC[C@@H]1[C@@H]2CC[C@]2(C)C(=O)CC[C@@H]12` [dehydroepiandrosterone], which “binding to expressed P45017α (substrate-induced difference spectrum)” value (bovine P45017α) is on record?
**A.** The value was “much less binding”.

**Q.** How did the “inhibition of 17α-hydroxylase activity” value ([2]; intact E. coli expressing bovine P45017α) turn out when `CC(=O)N1CCN(c2ccc(OCC3COC(Cn4ccnc4)(c4ccc(Cl)cc4Cl)O3)cc2)CC1` (stereo not shown) [ketoconazole] was run?
**A.** Its value is “inhibit 17α-hydroxylase activity”.

**Q.** With `CC(=O)[C@H]1CC[C@H]2[C@@H]3CC=C4C[C@@H](O)CC[C@]4(C)[C@H]3CC[C@]12C` [pregnenolone] as the molecule, how does the “binding to expressed P45017α (substrate-induced difference spectrum)” value (bovine P45017α) read?
**A.** Its value is “binding of substrates was also observed”.

**Q.** And the “conversion by expressed P45017α (17α-hydroxylation / 17,20-lyase)” value [2]?
**A.** The value was “readily converted to their 17α-hydroxylated products”.

**Q.** And the “metabolism by membrane-bound fusion protein” value [1]?
**A.** Its value is “rather slow rate”.

**Q.** What about the “metabolism by purified fusion protein” value [1] of the same molecule?
**A.** Its value is “remarkably high enzymatic activity”.

**Q.** What does the source list for `CC(=O)[C@H]1CC[C@H]2[C@@H]3CCC4=CC(=O)CC[C@]4(C)[C@H]3CC[C@]12C` [progesterone]?
**A.** binding to expressed P45017α (substrate-induced difference spectrum) (bovine P45017α): binding of substrates was also observed; conversion by expressed P45017α (17α-hydroxylation / 17,20-lyase) [2]: readily converted to their 17α-hydroxylated products; metabolism by membrane-bound fusion protein [1, 5]: rather slow rate; metabolism by purified fusion protein [1, 6]: remarkably high enzymatic activity

B1: human liver P450 1A2 (Homo sapiens; A19F/I20L/S18V) (protein)
chain: MALLLAVFLFCLVFWVLKGLRPRVPKGLKSPPEPWGWPLLGHVLTLGKNPHLALSRMSQRYGDVLQIRIGSTPVLVLSRLDTIRQALVRQGDDFKGRPDLYTSTLITDGQSLTFSTDSGPVWAARRRLAQNALNTFSIASDPASSSSCYLEEHVSKEAKALISRLQELMAGPGHFDPYNQVVVSVANVIGAMCFGQHFPESSDEMLSLVKNTHEFVETASSGNPLDFFPILRYLPNPALQRFKAFNQRFLWFLQKTVQEHYQDFDKNSVRDITGALFKHSKKGPRASGNLIPQEKIVNLVNDIFGAGFDTVTTAISWSLMYLVTKPEIQRKIQKELDTVIGRERRPRLSDRPQLPYLEAFILETFRHSSFLPFTIPHSTTRDTTLNGFYIPKKCCVFVNQWQVNHDPELWEDPSEFRPERFLTADGTAINKPLSEKMMLFGMGKRRCIGEVLAKWEIFLFLAILLQQLEFSVPPGVKVDLTPIYGLTMKHARCEHVQARLRFSIN
notes: made in house; host or cells: E. coli DH5α membranes, pCWori+ plasmid
**Q.** For B1, which Km [3] is on record?
**A.** The Km was 13 µM.

**Q.** And the kcat [3]?
**A.** Its kcat is 1.5 mol/min/mol P450.

**Q.** And the Km [4]?
**A.** The Km was 0.01 µM.

**Q.** What about the kcat [4] of the same molecule?
**A.** The kcat was 2.5 mol/min/mol P450.
